The values below come from US9522888B2, “Substituted bicyclic compounds” (BRISTOL-MYERS SQUIBB COMPANY, priority 2014, dated 2016).

Entries after “also recorded” stand apart in the source; their conditions may differ.

In test [1] the test system is MOG35-55 induced EAE, clinical score. Kind of test: Mouse Experimental Autoimmune Encephalomyelitis Assay (EAE). Conditions: for Clinical scores on day 22, Mean: C57BL/6 mice, prophylactic oral. Format: in vivo, C57BL/6 mice.
Test [2] deals with circulating lymphocytes. Kind of test: Blood Lymphocyte Reduction (BLR) assay in mouse. Type of test: in vivo, BALB/c mice. The note with it: oral, 0.5 mg/kg. Here is the method:
(§1) Blood Lymphocyte Reduction (BLR) Assay in Rodent:
(§2) Lewis rats or BALB/c mice were dosed orally with vehicle alone (polyethylene glycol 300, “PEG300”) or with test compounds. Compounds were dosed as a solution or suspension in the vehicle, adjusted to reflect the free amount of test article in the event that salt forms are utilized. Blood was drawn at 24 hr and blood lymphocyte counts were determined on an ADVIA 120 Hematology Analyzer (Siemens Healthcare Diagnostics). The results were measured as a reduction in the percentage of circulating lymphocytes as compared to the vehicle treated group at the time of measurement. The results represent the average results of all animals within each treatment group (n=2-4).

The next test deals with anti-dsDNA antibodies. Kind of test: MRL/lpr lupus model: anti-dsDNA antibody titers (ELISA). Type of test: in vivo, Male MRL/lpr mice. Conditions: MRL/lpr mice; for Anti-dsDNA antibody titers (23 weeks of age) (Mean): ratio to pooled MRL/lpr immune serum titer. On the procedure:
(§3) MRL/lpr is a spontaneous model of lupus. Male MRL/lpr mice (Jackson Laboratory) at the age of 12-14 weeks were enrolled for the study (N=12). Mice were dosed p.o. daily with vehicle (18.4% (w/v) hydroxypropyl-b-cyclodextrin in 13.8 mM citric acid) or with Example 681 at 0.06, 0.3, 1.5 mg/kg. Mice were bled every other week for anti-dsDNA antibodies measured by ELISA using pooled serum from diseased MRL/lpr mice as a positive comparator in each assay. The data were expressed in arbitrary units as a ratio of the titer of the test serum to the titer of the pooled MRL/lpr immune serum.

The next test has as its system kidney histology score. The test is described as follows: MRL/lpr lupus model: kidney histological analysis. Format: in vivo, Male MRL/lpr mice. Conditions: MRL/lpr mice; for Kidney Histology (nephritis) 23 weeks of age (Mean): total score, highest possible score=36. On the procedure:
as §3
At the end of study, one kidney was collected into 10% neutral buffered formalin and ZincTris fixatives. Fixed tissues were processed into paraffin blocks, sectioned at 3 μm, and stained with H&E or PASH. Kidney sections were graded using following criteria: Glomerular Damage: 1. Mesangial matrix thickening, cell proliferation, 2. Crescent formation, cellular deposits/casts in Bowman's space, 3. Cellular infiltration, mononuclear cells in glomerular tufts, 4. Fibrosis of Bowman's capsule. Tubular damage: 1. Infiltration of mononuclear cells, 2. Severity of tubular damage, 3. Protein casts. Tubulo-interstitial damage: 1. Fibrosis, 2. Infiltration of mononuclear cells. Each subcategory was assigned a score from 0-4, with the scores for glomerular indices representing the mean from 20 glomeruli per kidney. The total score for each mouse was the sum of the above 9 subcategories, with the highest possible score=36.

The test system of test [3] is circulating lymphocytes. Kind of test: Blood Lymphocyte Reduction (BLR) assay in rat. Type of test: in vivo, Lewis rats. Conditions: oral, 0.1 mg/kg. Here is the method:
as §1, §2

Where [4] appears, read: p.o. daily 0.06, 0.3, 1.5 mg/kg, result in words.

On to `COc1ccccc1CC[C@@H]1CCc2cc([C@H]3CC[C@](N)(CO)C3)ccc2C1` [Example 681, ((1R,3S)-1-amino-3-((S)-6-(2-methoxyphenethyl)-5,6,7,8-tetrahydronaphthalen-2-yl)cyclopentyl)methanol], for which the entries for the “Clinical scores on day 22, Mean” value in test [1] (0.1 mg/kg), in test [1] (0.5 mg/kg) and in test [1] (2 mg/kg) were 3.1, 1.1 and 0.8, respectively. Also, in test [1] (C57Bl/6 mice, prophylactic oral dosing regimen, result in words), the “inhibition of disease progression as measured by clinical scores” value is on record as “showed inhibition of disease progression; also recorded: inhibit disease progression”. Also, the lymphocyte reduction with circulating lymphocytes [2] (mice, 24 hours post dose) amounted to 85%; in the test on circulating lymphocytes [3] (rodent BLR assay, 24 hours post-dose, versus vehicle treated group), 53%. Further, the “Mouse Blood Lymphocyte Reduction Assay at 24 hr post-dose Percent reduction vs. control” value in the test with circulating lymphocytes [2] (mouse, 24 hr post-dose) was determined as 85%. Further, the “Anti-dsDNA antibody titers (23 weeks of age) (Mean)” value with anti-dsDNA antibodies (0.06 mg/kg p.o. daily) is reported as 1.861 arbitrary units; with anti-dsDNA antibodies (0.3 mg/kg p.o. daily) it was 0.978 arbitrary units; with anti-dsDNA antibodies (1.5 mg/kg p.o. daily), 1.023 arbitrary units. In addition, the “inhibition of disease progression as measured by anti-dsDNA titers” value with anti-dsDNA antibodies (setting [4]) is recorded as “showed inhibition of disease progression”. Also, the “Kidney Histology (nephritis) 23 weeks of age (Mean)” value with kidney histology score (0.06 mg/kg p.o. daily) is recorded as 10.13; with kidney histology score (0.3 mg/kg p.o. daily), 10.00; in the test with kidney histology score (1.5 mg/kg p.o. daily) it was 12.63. For the same compound, the “inhibition of disease progression as measured by kidney histology” value in the test with kidney histology score (setting [4]) was “showed inhibition of disease progression”. Further, the “Percent reduction vs. control at 24 hr post-dose” value in the test on circulating lymphocytes [3] (blood lymphocytes, 24 hr post-dose) stood at 53%.
